According to ChEMBL document CHEMBL1130989, “Design and synthesis of bio-isosteres of thymidine triphosphate” (Bioorg Med Chem Lett, 1998):

Key:
[1] = tested on: CCRF-CEM; assay: Dose required for no significant anti-HIV activity against HIV-2 in human lymphocyte CEM cells; assay type: functional, cell-based
[2] = tested on: CCRF-CEM; assay: Dose required for no significant anti-HIV activity against HIV-1 in human lymphocyte CEM cells; assay type: functional, cell-based
[3] = target: Human immunodeficiency virus type 1 reverse transcriptase (Human immunodeficiency virus 1, UniProt Q72547); assay: Concentration required for no significant inhibitory activity against HIV-1 reverse transcriptase

EC50 [1] [µM] | EC50 [2] [µM] | IC50 [3] [µM] | SMILES
> 200 | > 200 | > 500 | Cc1cn(C2C=CC(CNC(=O)CC3(C)CC(O[Si](c4ccccc4)(c4ccccc4)C(C)(C)C)CN3C(=O)OC(C)(C)C)O2)c(=O)[nH]c1=O (stereo not given)
> 200 | > 200 | > 500 | Cc1cn(C2CC(O)C(CNC(=O)CC3(C)CC(O)CN3)O2)c(=O)[nH]c1=O (stereo not given)
> 200 | > 200 | > 500 | Cc1cn(C2C=CC(CNC(=O)CC3(C)CC(O)CN3C(=O)OC(C)(C)C)O2)c(=O)[nH]c1=O (stereo not given)

The next lines start with the molecule.

SMILES | EC50 [1] [µM] | EC50 [2] [µM] | IC50 [3] [µM]
Cc1cn(C2C=CC(CNC(=O)CC3(C)CC(O)CN3)O2)c(=O)[nH]c1=O (stereo not given) | > 200 | > 200 | > 500
Cc1cn(C2CC(O[Si](C)(C)C(C)(C)C)C(CNC(=O)CC3(C)CC(O[Si](c4ccccc4)(c4ccccc4)C(C)(C)C)CN3C(=O)OC(C)(C)C)O2)c(=O)[nH]c1=O (stereo not given) | > 200 | > 200 | > 500
